# From US9434763B2, “Derivatives of pyridinone as inhibitors for tissue transglutaminase” (ZEDIRA GMBH, priority 2012, dated 2016)
# Legend:
# Assay type in all cases: biochemical
# Conditions in all cases: casein as substrate
# TG3 (transglutaminase 3) = target: T1, TG3 (transglutaminase 3) (Homo sapiens, UniProt Q08188); experiment: Comparative transglutaminase selectivity assay with casein and dansylcadaverine as substrates: TG3
# T1 construct: purchased Zedira T012
# T1 sequence (Q08188 1-693): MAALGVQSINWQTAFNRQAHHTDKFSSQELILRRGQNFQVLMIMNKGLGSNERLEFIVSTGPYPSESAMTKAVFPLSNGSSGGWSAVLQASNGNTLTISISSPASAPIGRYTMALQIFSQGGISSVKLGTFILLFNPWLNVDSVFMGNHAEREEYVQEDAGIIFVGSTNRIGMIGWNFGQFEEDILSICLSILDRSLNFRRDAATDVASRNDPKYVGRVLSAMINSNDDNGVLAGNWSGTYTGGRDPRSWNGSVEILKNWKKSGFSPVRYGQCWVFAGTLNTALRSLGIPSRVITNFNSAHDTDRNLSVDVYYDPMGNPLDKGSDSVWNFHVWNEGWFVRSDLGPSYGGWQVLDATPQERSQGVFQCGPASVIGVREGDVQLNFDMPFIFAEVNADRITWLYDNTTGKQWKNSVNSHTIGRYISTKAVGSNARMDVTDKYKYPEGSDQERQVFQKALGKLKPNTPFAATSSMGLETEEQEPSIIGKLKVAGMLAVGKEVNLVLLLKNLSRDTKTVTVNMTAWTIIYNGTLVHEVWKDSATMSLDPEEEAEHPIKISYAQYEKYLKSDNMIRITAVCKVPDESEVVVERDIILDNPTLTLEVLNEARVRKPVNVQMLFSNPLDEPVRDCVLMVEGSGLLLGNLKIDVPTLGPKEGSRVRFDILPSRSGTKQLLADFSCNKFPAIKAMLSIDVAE
# Excerpt: (§1) The comparative determination of different transglutaminases to determine the selectivity was made with casein and dansylcadaverine as substrates. Therefore, the kit T036 (Zedira, Darmstadt; Refs: Lorand et al, Anal Biochem, 1971, 44:221-31) as well as transglutaminase products T009 (transglutaminase 1), T012 (transglutaminase 3), T021 (transglutaminase 6) and T027 (plasma transglutaminase, factor XIII) are used. Therefore, two different IC50 values for the compounds are given.
# (§2) The evaluation of the resulting enzyme activity is done using the slope of the straight line obtained by the increase in fluorescence.
# (§3) To determine the non-inhibited enzyme activity, DMSO instead of inhibitor stock solution is used. IC50 values are determined by plotting the resulting enzyme activity against the logarithm of the inhibitor concentration. IC50 is defined as the concentration of inhibitor resulting in 50% of enzyme activity.
# (§4) It should be noted that it was measured here against casein as substrate, which is why other apparent inhibition values (IC50 value) result.
# [1] = target: T2, FXIII (plasma transglutaminase, factor XIII) (Homo sapiens, UniProt P00488); experiment: Comparative transglutaminase selectivity assay with casein and dansylcadaverine as substrates: FXIII
# T2 construct: purchased Zedira T027
# T2 sequence (P00488 1-732): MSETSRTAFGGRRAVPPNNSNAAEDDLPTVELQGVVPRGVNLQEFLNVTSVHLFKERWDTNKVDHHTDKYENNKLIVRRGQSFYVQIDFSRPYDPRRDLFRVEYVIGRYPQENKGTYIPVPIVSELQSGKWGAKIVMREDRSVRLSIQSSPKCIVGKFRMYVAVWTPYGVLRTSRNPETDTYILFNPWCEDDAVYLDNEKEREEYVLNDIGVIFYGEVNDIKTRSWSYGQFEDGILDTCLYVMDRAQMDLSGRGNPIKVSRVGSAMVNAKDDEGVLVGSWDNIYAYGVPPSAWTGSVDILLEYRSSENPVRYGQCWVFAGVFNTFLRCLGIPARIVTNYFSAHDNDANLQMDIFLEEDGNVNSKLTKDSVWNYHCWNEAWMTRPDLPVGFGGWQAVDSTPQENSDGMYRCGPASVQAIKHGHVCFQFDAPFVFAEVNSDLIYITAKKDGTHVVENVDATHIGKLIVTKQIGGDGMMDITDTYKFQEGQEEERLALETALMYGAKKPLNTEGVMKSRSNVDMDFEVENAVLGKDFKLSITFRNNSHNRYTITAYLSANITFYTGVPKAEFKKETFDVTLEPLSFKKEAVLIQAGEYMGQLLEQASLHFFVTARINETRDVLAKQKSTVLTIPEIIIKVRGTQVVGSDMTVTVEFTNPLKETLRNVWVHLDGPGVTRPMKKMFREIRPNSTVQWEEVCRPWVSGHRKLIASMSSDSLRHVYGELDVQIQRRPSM
# Excerpt: as §1, §2, §3, §4
# TG1 (transglutaminase 1) = target: T3, TG1 (transglutaminase 1) (Homo sapiens, UniProt P22735); experiment: Comparative transglutaminase selectivity assay with casein and dansylcadaverine as substrates: TG1
# T3 construct: purchased Zedira T009
# T3 sequence (P22735 1-817): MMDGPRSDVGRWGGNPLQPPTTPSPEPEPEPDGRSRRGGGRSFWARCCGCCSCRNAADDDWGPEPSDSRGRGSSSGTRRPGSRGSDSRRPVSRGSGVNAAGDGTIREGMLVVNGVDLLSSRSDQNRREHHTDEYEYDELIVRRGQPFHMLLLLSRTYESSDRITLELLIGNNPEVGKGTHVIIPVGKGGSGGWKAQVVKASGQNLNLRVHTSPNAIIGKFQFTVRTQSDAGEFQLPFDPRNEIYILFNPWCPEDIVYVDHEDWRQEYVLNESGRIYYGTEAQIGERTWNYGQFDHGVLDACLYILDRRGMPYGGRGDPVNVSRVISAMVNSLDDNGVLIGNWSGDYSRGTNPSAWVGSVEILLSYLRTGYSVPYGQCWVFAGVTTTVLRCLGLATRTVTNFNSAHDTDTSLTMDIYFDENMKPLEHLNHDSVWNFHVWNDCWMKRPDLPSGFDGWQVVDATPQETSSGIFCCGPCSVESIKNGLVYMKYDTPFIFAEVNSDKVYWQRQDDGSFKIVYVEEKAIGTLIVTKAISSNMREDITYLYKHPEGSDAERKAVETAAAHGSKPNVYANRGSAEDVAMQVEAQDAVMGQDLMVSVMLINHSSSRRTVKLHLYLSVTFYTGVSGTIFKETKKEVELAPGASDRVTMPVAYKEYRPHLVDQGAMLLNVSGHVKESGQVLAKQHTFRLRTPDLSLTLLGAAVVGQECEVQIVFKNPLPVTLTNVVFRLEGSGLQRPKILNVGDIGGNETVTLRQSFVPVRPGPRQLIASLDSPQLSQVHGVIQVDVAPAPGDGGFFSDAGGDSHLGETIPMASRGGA
# Excerpt: as §1, §2, §3, §4
IC50 (TG3 (transglutaminase 3)) [µM],IC50 [1] [µM],IC50 (TG1 (transglutaminase 1)) [µM],SMILES
95.8,70.7,87.1,"CCOC(=O)/C=C/CC[C@H](NC(C)=O)C(=O)Nc1cccn(CC(=O)N[C@H](C(=O)OC)[C@H](C)CC)c1=O [A35, (S,E)-ethyl 6-acetamido-7-(1-(2-((2S,3R)-1-methoxy-3-methyl-1-oxopentan-2-ylamino)-2-oxoethyl)-2-oxo-1,2-dihydropyridin-3-ylamino)-7-oxohept-2-enoate]"
69,90.9,113,"CCOC(=O)/C=C/CC[C@H](NC(=O)CCC(=O)O)C(=O)Nc1cccn(CC(=O)NCC(CC)CC)c1=O [A30, (S,E)-4-(7-Ethoxy-1-(1-(2-(2-ethylbutylamino)-2-oxoethyl)-2-oxo-1,2-dihydropyridin-3-ylamino)-1,7-dioxohept-5-en-2-ylamino)-4-oxobutanoic acid]"
